Measured values: ChEMBL document CHEMBL1255450, “Detection of E119V and E119I mutations in influenza A (H3N2) viruses isolated from an immunocompromised patient: challenges in diagnosis of oseltamivir resistance” (Antimicrob Agents Chemother, 2010)
pIC50: −log10 of the molar value.

Tests used:
Type in all cases: functional, organism-based, Influenza A virus (A/Texas/12/2007(H3N2))
Conditions in all cases: mdck
Influenza A virus [1] = tested on: Influenza A virus
Influenza A virus [2] = tested on: Influenza A virus; remark: listed apart in the source
Influenza A virus [3] = tested on: Influenza A virus; remark: listed apart in the source
Influenza A virus [4] = tested on: Influenza A virus; remark: listed apart in the source
Influenza A virus [5] = tested on: Influenza A virus; remark: listed apart in the source
Influenza A virus [6] = tested on: Influenza A virus; remark: listed apart in the source
Influenza A virus [7] = tested on: Influenza A virus; remark: listed apart in the source

SMILES | pIC50 (Influenza A virus [1]) | pIC50 (Influenza A virus [2]) | pIC50 (Influenza A virus [3]) | pIC50 (Influenza A virus [4]) | pIC50 (Influenza A virus [5]) | pIC50 (Influenza A virus [6]; read-out: IC50) | pIC50 (Influenza A virus [6]) | pIC50 (Influenza A virus [7])
CCC(CC)[C@H](NC(C)=O)[C@@H]1[C@H](O)[C@@H](C(=O)O)C[C@H]1NC(=N)N [PERAMIVIR ANHYDROUS] | 9.29 | 8.83 | 9.37 | 9.05 | 6.67 | 7.47 |  | 
CCOC(=O)C1=C[C@@H](OC(CC)CC)[C@H](NC(C)=O)[C@@H](N)C1 [OSELTAMIVIR] | 8.09 | 6.61 | 8.26 | 7.48 | 6.37 |  | 6.81 | 8.04
CC(=O)N[C@H]1[C@H]([C@H](O)[C@H](O)CO)OC(C(=O)O)=C[C@@H]1NC(=N)N [ZANAMIVIR] | 8.81 |  |  | 7.90 | 7.73 | 8.42 |  | 
C/C=C\[C@@H]1C[C@H](C(=O)O)N[C@H]1[C@@H](NC(C)=O)[C@](C)(CCC)OC | 8.87 | 8.26 | 8.90 | 8.30 | 7.62 | 8.52 |  | 
